The values below come from patent US20170073337A1, “DIHYDROTHIAZINE AND DIHYDROOXAZINE DERIVATIVES HAVING BACE1 INHIBITORY ACTIVITY” (Shionogi & Co., Ltd., priority 2014, published 2017).

The target of series [1] is T1, Recombinant human BACE1 (Homo sapiens, UniProt P56817).
T1 construct: purchased R&D Systems
The series is described as follows: Assay of BACE1 inhibitory activity: 96-well. In kind it is biochemical. The note with it: Assay format 96-well. As to the method:
48.5 μL of substrate peptide solution (Biotin-XSEVNLDAEFRHDSGC-Eu: X=ε-amino-n-capronic acid. Eu=Europium cryplate) was added to each well of 96-hole half-area plate (a black plate: Costar), and after addition of 0.5 μl of the compound of the present invention (DMSO solution) and 1 μl of Recombinant human BACE1(R&D Systems), the reaction mixture was incubated at 30° C. for 3.5 hours. The substrate peptide was synthesized by reacting Cryptate TBPCOOH mono SMP (CIS bio international) with Biotin-XSEVNLDAEFRHDSGC (Peptide Institute, Inc.).
After the incubation for reaction, 50 μl of 8.0 μg/ml Streptavidin-XL665 (CIS bio international) dissolved in phosphate buffer (150 mmol/L […]—KH2PO4, pH 7.0, 0.008% Triton X-100, 0.8 mol/L KF) was added to each well and left stand at 30° C. for 45 minutes.

The subject of series [2] is Aβ production in neuroblastoma SH-SY5Y cells (SH/APPwt). The series is described as follows: β-amyloid (Aβ) production inhibitory effect in cell: 96-well. The note with it: Homo sapiens, Assay format 96-well. In kind it is cell-based. The method, boiled down: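 SH-SY5Y cells overexpressing human wild-type APP, precultured 2 h at […] under 5% CO2, then exposed to test compound for 24 h (final DMSO 1%). Aβ1-40 in culture supernatant quantified by HTRF after overnight incubation at 4° C in the dark.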

Series [3] in a line: Brain distribution studies. In kind it is in vivo. The note with it: rat, brain / plasma, iv, 0.5 mg/mL/kg, 30 minutes later, area ratio brain/plasma. As to the method:
Compound of the present invention was intravenously administered to a rat at 0.5 mg/mL/kg dosage. 30 minutes later, all blood was drawn from the abdominal aorta under isoflurane anesthesia for death from exsanguination. […] The obtained blood was used as plasma after centrifuging. The control plasma was added to the brain sample at 1:1. The control brain homogenate was added to the plasma sample at 1:1. Each sample was measured using LC/MS/MS. The obtained area ratio (a brain/plasma) was used for the brain Kp value.

Series [4] has as its target T1, Recombinant human BACE1. The series is described as follows: Assay of BACE1 inhibitory activity: 384-well. In kind it is biochemical. The note with it: Assay format 384-well. In short, it runs like this:
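Recombinant human BACE1 was incubated 2 h at 25 °C with a biotin/Eu-cryptate-labelled peptide substrate and compound in DMSO. Streptavidin-XL665 in pH 7.0 phosphate buffer containing 0.8 mol/L KF was then added for 30 min at 25 °C for HTRF detection.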

For series [5], the system named is Aβ production in neuroblastoma SH-SY5Y cells (SH/APPwt). The series is described as follows: β-amyloid (Aβ) production inhibitory effect in cell: 384-well. In kind it is cell-based. The conditions noted are these: Homo sapiens, Assay format 384-well. The method, boiled down:
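Aβ1-40 secreted by SH/APPwt neuroblastoma cells was quantified by HTRF (overnight, 4 °C, light-protected; emission 620/665 nm). Cells were exposed to compound from seeding for 21 h at 1% final DMSO.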

T1 sequence (P56817 46-501): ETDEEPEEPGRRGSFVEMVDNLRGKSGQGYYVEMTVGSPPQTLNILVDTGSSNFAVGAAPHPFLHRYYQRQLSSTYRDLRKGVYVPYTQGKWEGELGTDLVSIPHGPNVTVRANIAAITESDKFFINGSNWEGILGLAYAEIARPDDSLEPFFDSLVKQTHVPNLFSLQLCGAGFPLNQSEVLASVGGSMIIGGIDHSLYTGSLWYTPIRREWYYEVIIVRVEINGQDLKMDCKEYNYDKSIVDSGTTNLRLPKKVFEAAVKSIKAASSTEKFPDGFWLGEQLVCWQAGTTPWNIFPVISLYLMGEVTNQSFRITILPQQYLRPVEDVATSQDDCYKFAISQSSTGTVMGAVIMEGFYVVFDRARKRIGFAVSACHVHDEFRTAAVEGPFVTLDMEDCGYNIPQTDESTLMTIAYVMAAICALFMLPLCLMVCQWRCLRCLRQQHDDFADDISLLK

One may read the IC50 as the point on the concentration scale where inhibition reaches its midpoint. For orientation: Kp means the ratio of the level in a tissue or fluid to that in plasma or blood. As for `C[C@]1(c2nc(NC(=O)c3ccc(C#N)cn3)ccc2F)N=C(N)S[C@H](CF)[C@@H]1F` [Compound I-4], the IC50 came out at 11.5 nM in series [1] and 0.697 nM in series [2]. In addition, the Kp at 0.5 h in series [3] was 2.
On to `C[C@H]1SC(N)=N[C@](C)(c2nc(NC(=O)c3cnc(OCF)cn3)ccc2F)[C@H]1F` [Compound I-3], for which the IC50 in series [1] is 61.3 nM; in series [2], 3.59 nM. The Kp at 0.5 h in series [3] was determined as 2.3.
The corresponding values for `COc1cnc(C(=O)Nc2ccc(F)c([C@@]3(C)N=C(N)S[C@H](C)[C@@H]3F)c2)cn1` [Compound I-8] are 11.8 nM, 0.26 nM and 1.8.
Turning to `C[C@]1(c2cc(NC(=O)c3ccc(C#N)cn3)ccc2F)N=C(N)O[C@H](CF)[C@@H]1OCC(F)(F)F` [Compound I-10], the figures for the IC50 in series [1] and in series [2] were 25.8 nM and 0.708 nM, respectively. In addition, the Kp at 0.5 h in series [3] came to 1.1.
For `C[C@]1(c2cc(NC(=O)c3cnc(OCF)cn3)ccc2F)N=C(N)O[C@H](CF)[C@@H]1OCC(F)(F)F` [Compound I-12], the IC50 in series [1] worked out at 56.8 nM; in series [2] it was 1.88 nM. For the same compound, the Kp at 0.5 h in series [3] came out at 1.
As to `C[C@H]1[C@@H](C(F)(F)F)OC(N)=N[C@]1(C)c1cc(NC(=O)c2cnc(OCF)cn2)ccc1F` [Compound I-30], the IC50 was determined as 52.1 nM in series [1] and 2.33 nM in series [2]. Besides, in series [3], the Kp at 0.5 h worked out at 3.2.
Take `CO[C@H]1[C@@H](CF)OC(N)=N[C@]1(C)c1cc(NC(=O)c2cnc(OCF)cn2)ccc1Cl` [Compound I-19]: the IC50 in series [1] came to 46.5 nM; in series [2] it was 1.2 nM. For the same compound, in series [3], the Kp at 0.5 h came to 0.51.
`C[C@@H](F)[C@H]1OC(N)=N[C@](C)(c2cc(NC(=O)c3ccc(C#N)cn3)ccc2F)[C@H]1F` [Compound I-15]: the concentration for half-maximal inhibition (IC50) in series [1] turned out to be 15.2 nM; in series [2], 0.65 nM. The partition ratio (Kp) at 0.5 h in series [3] came out at 0.79.
`C[C@H]1SC(N)=N[C@](C)(c2nc(NC(=O)c3ccc(F)cn3)ccc2F)[C@H]1F` [Compound I-2]: the IC50 in series [1] turned out to be 67.9 nM; in series [2] it was 3.73 nM. In addition, in series [3], the Kp at 0.5 h was found to be 2.9.
For `C[C@@]1(c2cc(NC(=O)c3ccc(C#N)cn3)ccc2F)C[C@@](C)(C(F)(F)F)OC(N)=N1` [Compound I-7] the same measures were 47.5 nM, 2.52 nM and 2.
For `C[C@H]1SC(N)=N[C@](C)(c2nc(NC(=O)c3ccc(C#N)cn3)ccc2F)[C@H]1F` [Compound I-1], the IC50 in series [1] was determined as 13.3 nM; in series [2], 0.504 nM. For the same compound, in series [3], the Kp at 0.5 h was 2.
For `C[C@H](F)[C@H]1OC(N)=N[C@](C)(c2cc(NC(=O)c3ccc(C#N)cn3)ccc2F)[C@H]1F` [Compound I-13] the same measures were 32 nM, 1.12 nM and 0.56.
For `COC[C@H]1SC(N)=N[C@](C)(c2cc(NC(=O)c3cnc(OCF)cn3)ccc2F)[C@H]1F` [Compound I-91], the IC50 in series [4] came out at 6.37 nM; in series [5], 0.25 nM. The Kp at 0.5 h in series [3] turned out to be 1.
